From patent publication US20250041263A1, “USE OF CATECHIN FOR THE TREATMENT OF FGFR-RELATED BONE REPAIR AND BONE FORMATION IMPAIRMENT” (INSTITUT NATIONAL DE LA SANTÉ ET DE LA RECHERCHE MÉDICALE, priority 2021, published 2025)

System: HCH mice (Fgfr3^N534K/+)
Experiment: Non-stabilized mandibular fracture repair in HCH mouse model (microCT, repair grade)
Assay type: in vivo
Conditions: for BV/TV, treated vs untreated HCH mice: p<0.05
Experimental: I-Study of mandibular bone repair in the mouse model of hypochondroplasia (Fgfr3^[…]/+) Mandibular bone repair was studied in the HCH mouse model (Fgfr3^[…]/+). The experiments were performed in adult animals at 6 weeks of age, and mice were euthanized at 4 key points: during bone repair (10, 14, 21 days post fracture), and at the end of the normal bone healing process i.e. at 28 days post fracture. Vertical mandibular fractures were performed in the ascending ramus region in Fgfr3^[…]/+ and Fgfr3^+/+ mice. This is a non-stabilized mandibular fracture protocol allowing to analyze the endochondral bone repair process. Four batches (n=100) of Fgfr3^[…]/+ and Fgfr3^+/+ mandible fractures corresponding to different key stages of repair were studied (day 10, day 14, day 21, day 28). Using collagen type II (proliferative cartilage), type X (hypertrophic cartilage) and type I (bone) immunolabelling, we observed that the endochondral process is disturbed, we noted a delayed cartilage resorption, a reduction in the size of hypertrophic chondrocytes area and a defect in bone formation within the repair callus in Fgfr3^[…]/+ compared to Fgfr3^+/+. […] We observed the presence of pseudarthrosis (fibrosis in the callus) in Fgfr3^[…]/+ mice whereas we observed 100% of bone in Fgfr3^+/+ callus. Considering the quality of the newly formed bone at day 28, we defined four grades of repair and classified the mice according to their repair grade (from 1 to 4). The defective repair is significant in Fgfr3^[…]/+ compared to Fgfr3^+/+ (Data not shown). HCH mice (Fgfr3^[…]/+) were treated with (-)-epicatechin (subcutaneous injection at 0.3 mg/kg, 3 times per week) from day 0 (facture of the mandible) to day 14 or day 28. The bone repair analyses were evaluated by microCT scans at day 14 (FIG. 1A) and day 28 (FIG. 1B) post fracture.

[1] = day 28 grade repair, treated HCH mice
[2] = microCT, day 14 post fracture, FIG. 1A
[3] = microCT, day 28 post fracture, FIG. 1B
[4] = summary statement, time not stated

Molecule	Complete bone healing (grade 1), mice with grade / treated mice [1]	Restoration of bone continuity, but presence of mild bone defects (grade 2), mice with grade / treated mice [1]	presence of a bone callus, but with partial bone discontinuity (grade 3), mice with grade / treated mice [1]	pseudarthrosis in treated HCH mice (day 28 post fracture)	BV/TV of treated Fgfr3^N534K/+ mandibles (in words) [2]	volume of the callus, treated vs untreated Fgfr3^N534K/+ (in words) [2]	BV/TV, treated vs untreated HCH mice (microCT, day 14 post fracture, subcutaneous 0.3 mg/kg, 3 times per week from day 0)	BV/TV of treated Fgfr3^N534K/+ mandibles (in words) [3]	volume of the callus, treated vs untreated Fgfr3^N534K/+ (in words) [3]	volume of the callus, treated vs untreated HCH mice (microCT, day 28 post fracture, subcutaneous 0.3 mg/kg, 3 times per week from day 0, p<0.01)	BV/TV, treated vs untreated HCH mice (microCT, day 28 post fracture, subcutaneous 0.3 mg/kg, 3 times per week from day 0)	mandible bone formation and repair / defective bone reparation of the callus (overall, in words) [4]	bone volume/total volume (overall, in words) [4]	pseudarthrosis (overall, in words) [4]
Oc1cc(O)c2c(c1)O[C@H](c1ccc(O)c(O)c1)[C@H](O)C2 [(−)-epicatechin, (2R,3R)-2-(3,4-dihydroxyphenyl)-3,4-dihydro-2H-chromene-3,5,7-triol]	1/9	6/9	2/9	did not observe pseudarthrosis	increased	unchanged	+19%	increased	decreased	−39.8%	+6.3%	improves	–	–
catechin	–	–	–	–	–	–	–	–	–	–	–	partially restores	increases	without pseudarthrosis
